According to patent US10968225B2, “Compounds and compositions for the treatment of cystic fibrosis” (Fondazione Istituto Italiano Di Tecnologia, priority 2017, dated 2021):

target: T1, mutant CFTR (Homo sapiens, UniProt P13569, DEL508-508); experiment: Fluorescence (HS-YFP) assay for CFTR activity, corrector assay; assay type: cell-based; conditions: CFBE41o- and FRT cells with stable expression of mutant CFTR, read-out: activity (EC50)
T1 construct: expressed in transfected cells
T1 sequence (P13569 with tags, fused parts or gaps DEL508-508): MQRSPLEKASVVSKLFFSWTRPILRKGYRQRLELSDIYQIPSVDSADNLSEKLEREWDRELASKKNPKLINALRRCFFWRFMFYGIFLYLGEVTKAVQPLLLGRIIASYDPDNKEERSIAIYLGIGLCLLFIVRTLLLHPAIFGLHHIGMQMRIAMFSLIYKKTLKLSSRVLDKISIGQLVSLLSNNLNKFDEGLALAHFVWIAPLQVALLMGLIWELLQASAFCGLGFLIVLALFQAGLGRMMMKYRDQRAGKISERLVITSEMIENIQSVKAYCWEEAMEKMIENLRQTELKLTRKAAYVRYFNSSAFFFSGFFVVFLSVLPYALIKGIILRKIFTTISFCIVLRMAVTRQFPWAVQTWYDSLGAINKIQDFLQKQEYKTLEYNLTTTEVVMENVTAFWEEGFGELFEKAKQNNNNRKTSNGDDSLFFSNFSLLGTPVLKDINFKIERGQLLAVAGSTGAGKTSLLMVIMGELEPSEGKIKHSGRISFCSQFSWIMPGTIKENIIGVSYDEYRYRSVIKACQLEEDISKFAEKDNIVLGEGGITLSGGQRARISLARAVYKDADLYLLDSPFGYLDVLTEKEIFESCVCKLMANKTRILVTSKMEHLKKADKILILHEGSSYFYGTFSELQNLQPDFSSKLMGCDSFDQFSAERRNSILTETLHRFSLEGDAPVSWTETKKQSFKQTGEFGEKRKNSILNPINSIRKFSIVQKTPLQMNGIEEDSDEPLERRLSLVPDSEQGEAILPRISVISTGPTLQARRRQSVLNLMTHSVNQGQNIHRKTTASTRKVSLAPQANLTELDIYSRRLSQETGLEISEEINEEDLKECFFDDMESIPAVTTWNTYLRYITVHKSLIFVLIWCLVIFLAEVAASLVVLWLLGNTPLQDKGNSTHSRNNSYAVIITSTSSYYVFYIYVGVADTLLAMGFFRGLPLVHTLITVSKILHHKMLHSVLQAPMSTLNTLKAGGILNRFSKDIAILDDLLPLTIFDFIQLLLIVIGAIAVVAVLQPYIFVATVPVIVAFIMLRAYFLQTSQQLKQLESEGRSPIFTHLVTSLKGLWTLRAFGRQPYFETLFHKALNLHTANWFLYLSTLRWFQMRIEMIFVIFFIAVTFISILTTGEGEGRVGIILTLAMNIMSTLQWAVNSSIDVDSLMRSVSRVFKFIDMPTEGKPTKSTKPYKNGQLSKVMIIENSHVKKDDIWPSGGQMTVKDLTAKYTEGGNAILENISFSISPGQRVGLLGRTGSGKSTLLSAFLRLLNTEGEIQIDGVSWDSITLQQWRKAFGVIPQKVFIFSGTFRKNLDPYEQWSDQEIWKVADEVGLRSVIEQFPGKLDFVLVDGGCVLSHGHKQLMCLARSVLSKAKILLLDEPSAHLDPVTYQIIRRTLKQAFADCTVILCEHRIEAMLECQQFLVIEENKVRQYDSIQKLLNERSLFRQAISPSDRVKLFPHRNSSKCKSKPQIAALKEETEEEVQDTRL

Row | SMILES | EC50
1 | CN(C(=O)c1cccc(-n2nc(C(F)F)c3c2C(Oc2ccc(C(=O)O)cc2)CCC3)c1)c1ccc2c(c1)OC(F)(F)O2 (racemic) [Compound 254, (rac)-4-[[1-[3-[(2,2-difluoro-1,3-benzodioxol-5-yl)-methyl-carbamoyl]phenyl]-3-(difluoromethyl)-4,5,6,7-tetrahydroindazol-7-yl]oxy]benzoic acid] | < 1000 nM
2 | CN(C(=O)c1cccc(-n2nc(C(F)(F)F)c3c2C(Oc2ccc(C(=O)O)cc2)CCC3)c1)c1ccnc(OC(F)F)c1 (single isomer, unassigned) [Compound 289, (S) or (R)-4-[[1-[3-[[2-(Difluoromethoxy)-4-pyridyl]-methyl-carbamoyl]phenyl]-3-(trifluoromethyl)-4,5,6,7-tetrahydroindazol-7-yl]oxy]benzoic acid] | < 1000 nM
3 | Cc1cc2ncc(N(C)C(=O)c3cccc(-n4nc(C(F)(F)F)c5c4C(Oc4ccc(C(=O)O)cc4)CCC5)c3)cn2n1 (stereo not drawn) [Compound 174, 4-[[1-[3-[Methyl-(2-methylpyrazolo[1,5-a]pyrimidin-6-yl)carbamoyl]phenyl]-3-(trifluoromethyl)-4,5,6,7-tetrahydroindazol-7-yl]oxy]benzoic acid] | < 1000 nM
4 | CN(C(=O)c1cccc(-n2nc(C(F)(F)F)c3c2CCN(C[C@@H]2COC(C)(C)O2)C3)c1)c1ccc2c(c1)OCO2 [Compound 013, N-(1,3-Benzodioxol-5-yl)-3-[5-[[(4R)-2,2-dimethyl-1,3-dioxolan-4-yl]methyl]-3-(trifluoromethyl)-6,7-dihydro-4H-pyrazolo[4,3-c]pyridin-1-yl]-N-methyl-benzamide] | < 1000 nM
5 | CN(C(=O)c1cccc(-n2nc(C(F)(F)F)c3c2C(Oc2ccc(C(=O)O)c(F)c2)CCC3)c1)c1ccc2c(c1)OC(F)(F)O2 (stereo not drawn) [Compound 147, 2-Fluoro-4-[[1-[3-[(2,2-difluoro-1,3-benzodioxol-5-yl)-methyl-carbamoyl]phenyl]-3-(trifluoromethyl)-4,5,6,7-tetrahydroindazol-7-yl]oxy]benzoic acid] | < 1000 nM
6 | CN(C(=O)c1cccc(-n2nc(C(F)(F)F)c3c2C(Oc2ccc(C(=O)O)cn2)CCC3)c1)c1ccc2c(c1)OC(F)(F)O2 (stereo not drawn) [Compound 180, 6-[[1-[3-[(2,2-Difluoro-1,3-benzodioxol-5-yl)-methyl-carbamoyl]phenyl]-3-(trifluoromethyl)-4,5,6,7-tetrahydroindazol-7-yl]oxy]pyridine-3-carboxylic acid] | < 1000 nM
7 | CN1CCc2c(c(C(F)(F)F)nn2-c2cccc(S(=O)(=O)N(C)c3ccc4c(c3)OCO4)c2)C1 [Compound 071, N-(1,3-Benzodioxol-5-yl)-N-methyl-3-[5-methyl-3-(trifluoromethyl)-6,7-dihydro-4H-pyrazolo[4,3-c]pyridin-1-yl]benzenesulfonamide] | > 2000 nM
8 | COC(=O)c1ccc(C(=O)N2CCc3c(c(C(F)(F)F)nn3-c3cccc(C(=O)N(C)c4ccc5c(c4)OCO5)c3)C2)cc1 [Compound 042, Methyl 4-[1-[3-[1,3-benzodioxol-5-yl(methyl)carbamoyl]phenyl]-3-(trifluoromethyl)-6,7-dihydro-4H-pyrazolo[4,3-c]pyridine-5-carbonyl]benzoate] | < 1000 nM
9 | CN(C(=O)c1cccc(-n2nc(C(F)(F)F)c3c2CN(S(=O)(=O)c2ccc(C(=O)O)cc2)CC3)c1)c1ccc2c(c1)OCO2 [Compound 077, 4-[[1-[3-[1,3-Benzodioxol-5-yl(methyl)carbamoyl]phenyl]-3-(trifluoromethyl)-5,7-dihydro-4H-pyrazolo[3,4-c]pyridin-6-yl]sulfonyl]benzoic acid] | 1000 to 2000 nM
10 | CN(C(=O)c1cccc(-n2nc(C(F)(F)F)c3c2CCN(S(=O)(=O)c2ccccc2C(=O)O)C3)c1)c1ccc2c(c1)OCO2 [Compound 062, 2-[[1-[3-[1,3-Benzodioxol-5-yl(methyl)carbamoyl]phenyl]-3-(trifluoromethyl)-6,7-dihydro-4H-pyrazolo[4,3-c]pyridin-5-yl]sulfonyl]benzoic acid] | > 2000 nM
11 | CN(C(=O)c1cccc(-n2nc(C(F)(F)F)c3c2C(Oc2ccc(C(=O)O)cc2)CCC3)c1)c1cnc2c(c1)COC2 (racemic) [Compound 260, (rac)-4-[[1-[3-[5,7-Dihydrofuro[3,4-b]pyridin-3-yl(methyl)carbamoyl]phenyl]-3-(trifluoromethyl)-4,5,6,7-tetrahydroindazol-7-yl]oxy]benzoic acid] | 1000 to 2000 nM
12 | CN(C(=O)c1cccc(-n2nc(C(F)(F)F)c3c2C(Oc2ccc(C(=O)O)nc2)CCC3)c1)c1ccc2c(c1)OC(F)(F)O2 (stereo not drawn) [Compound 164, 5-[[1-[3-[(2,2-Difluoro-1,3-benzodioxol-5-yl)-methyl-carbamoyl]phenyl]-3-(trifluoromethyl)-4,5,6,7-tetrahydroindazol-7-yl]oxy]pyridine-2-carboxylic acid] | < 1000 nM
13 | CN(C(=O)c1cccc(-n2nc(C(F)(F)F)c3c2C(n2cc(C(=O)O)ccc2=O)COC3)c1)c1ccc2c(c1)OC(F)(F)O2 (racemic) [Compound 301, (rac)-6-oxo-1-[1-[3-[(2,2-difluoro-1,3-benzodioxol-5-yl)-methyl-carbamoyl]phenyl]-3-(trifluoromethyl)-6,7-dihydro-4H-pyrano[4,3-c]pyrazol-7-yl]pyridine-3-carboxylic acid] | 1000 to 2000 nM
14 | [2H]C([2H])([2H])N(C(=O)c1cccc(-n2nc(C(F)(F)F)c3c2C(Oc2ccc(C(=O)O)cc2)CCC3)c1)c1ccc2c(c1)OC(F)(F)O2 (stereo not drawn) [Compound 155, 4-[[1-[3-[(2,2-Difluoro-1,3-benzodioxol-5-yl)-(trideuteriomethyl)carbamoyl]phenyl]-3-(trifluoromethyl)-4,5,6,7-tetrahydroindazol-7-yl]oxy]benzoic acid] | < 1000 nM
15 | CN(C(=O)c1cccc(-n2nc(C(F)(F)F)c3c2C(Oc2ccc(C(=O)O)cn2)CCC3)c1)c1ccc2c(c1)OC(F)(F)O2 (single isomer, unassigned) [Compound 192, (S) or (R)-6-[[1-[3-[(2,2-Difluoro-1,3-benzodioxol-5-yl)-methyl-carbamoyl]phenyl]-3-(trifluoromethyl)-4,5,6,7-tetrahydroindazol-7-yl]oxy]pyridine-3-carboxylic acid] | < 1000 nM
16 | CN(C(=O)c1cccc(-n2nc(C(F)(F)F)c3c2C(Oc2ccc(C(=O)O)cc2)COC3)c1)c1ccc2c(c1)OCC2 (single isomer, unassigned) [Compound 283, (S) or (R)-4-[[1-[3-[2,3-dihydrobenzofuran-6-yl(methyl)carbamoyl]phenyl]-3-(trifluoromethyl)-6,7-dihydro-4H-pyrano[4,3-c]pyrazol-7-yl]oxy]benzoic acid] | 1000 to 2000 nM
17 | Cc1nc2cc(F)c(N(C)C(=O)c3cccc(-n4nc(C(F)(F)F)c5c4CCN(C(=O)OC(C)(C)C)C5)c3)cc2o1 [Compound 036, tert-Butyl 1-[3-[(5-fluoro-2-methyl-1,3-benzoxazol-6-yl)-methylcarbamoyl]phenyl]-3-(trifluoromethyl)-6,7-dihydro-4H-pyrazolo[4,3-c]pyridine-5-carboxylate] | < 1000 nM
18 | CN(C(=O)c1cccc(-n2nc(C(F)(F)F)c3c2CCN(C(=O)C(C)(C)C(F)(F)F)C3)c1)c1ccc2c(c1)OCO2 [Compound 033, N-(1,3-Benzodioxol-5-yl)-N-methyl-3-[5-(3,3,3-trifluoro-2,2-dimethyl-propanoyl)-3-(trifluoromethyl)-6,7-dihydro-4H-pyrazolo[4,3-c]pyridin-1-yl]benzamide] | < 1000 nM
